Data as given in PMC7251097, “Aspartate/asparagine-β-hydroxylase: a high-throughput mass spectrometric assay for discovery of small molecule inhibitors” (Scientific Reports, 2020).
“Also recorded” adds a separate entry of the source. Structures can show the parent of a compound that is named as a salt. Where two headings read alike, the source gives them in different places.

Target: T1, His6-AspH315–758 (human aspartate/asparagine-β-hydroxylase, AspH) (Homo sapiens, UniProt Q12797)
T1 construct: N-Terminally His6-tagged human AspH315–758 (His6-AspH315–758) was produced in E. coli BL21 (DE3) cells; made in house; host or cells: E. coli BL21 (DE3), pET-28a(+) vector
T1 sequence (Q12797 315-758): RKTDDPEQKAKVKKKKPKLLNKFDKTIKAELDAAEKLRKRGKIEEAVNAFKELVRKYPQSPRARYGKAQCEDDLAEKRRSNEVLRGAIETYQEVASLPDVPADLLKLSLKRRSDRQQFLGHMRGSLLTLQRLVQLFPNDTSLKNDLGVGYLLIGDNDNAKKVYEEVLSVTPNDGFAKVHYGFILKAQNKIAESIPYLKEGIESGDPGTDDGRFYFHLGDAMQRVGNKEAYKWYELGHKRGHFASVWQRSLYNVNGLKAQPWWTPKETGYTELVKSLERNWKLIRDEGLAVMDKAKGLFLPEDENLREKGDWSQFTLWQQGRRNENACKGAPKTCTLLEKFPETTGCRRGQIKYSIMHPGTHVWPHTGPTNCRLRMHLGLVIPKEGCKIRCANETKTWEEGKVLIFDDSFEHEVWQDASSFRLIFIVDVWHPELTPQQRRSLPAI
Assay: SPE-MS AspH inhibition assay (LOPAC screen at fixed 20 μM and IC50 dose-response), hydroxylation of cyclic peptide hFX-CP101–119
Format: biochemical
Conditions: for IC50: 50 nM His6-AspH315–758, 1.0 μM hFX-CP101–119, 3 μM 2OG, 2 μM Fe(II), 50 mM HEPES pH 7.5, 20 °C, mean ± SD, n = 2 (2,4-PDCA n = 10), read-out: IC50

[1] = LOPAC compound at 20uM, plate 2, conversion of substrate peptide
[2] = LOPAC compound at 20uM, plate 2, normalised to DMSO and 2,4-PDCA controls, read-out: Plate 2 (% inhibition)
[3] = LOPAC compound at 20uM, plate 2, normalised to DMSO and 2,4-PDCA controls
[4] = AspH activity, fixed compound concentration 20 μM, initial LOPAC screen, 0.5%v/v DMSO, read-out: Inhibition at 20 µM [%]
[5] = LOPAC compound at fixed 20 uM, plate 1, normalised to DMSO and 2,4-PDCA controls
[6] = LOPAC compound at fixed 20 uM, substrate conversion, plate 1
[7] = LOPAC compound at 20uM, plate 3, conversion of substrate peptide
[8] = LOPAC Plate 4, compound at 20 uM
[9] = LOPAC Plate 4, compound at 20 uM, substrate conversion
[10] = plate 5 (Pfitzer), test compounds at fixed 20 μM
[11] = plate 5 (Pfitzer), test compounds at fixed 20 μM, mean conversion DMSO 32.88

COc1cccc2c1[C@@H]1CN(CCCCn3c(=O)[nH]c4c(sc5ncc(-c6ccccc6)nc54)c3=O)C[C@@H]1CO2 [Fiduxosin hydrochloride]
Plate 2 (% conversion) [1]: 64.73% | inhibition at 20 µM [2]: -85.9%

CC(C)C[C@H]1C(=O)N2CCC[C@H]2[C@]2(O)O[C@](NC(=O)[C@@H]3C=C4c5cccc6[nH]c(Br)c(c56)C[C@H]4N(C)C3)(C(C)C)C(=O)N12.CS(=O)(=O)O [(+)-Bromocriptine methanesulfonate]
Plate 1 (% conversion): 29.77% | Plate 1 (% inhibition): 18.18%

CN1CCc2cccc(Cl)c2CC1 [SKF 86466]
% conversion: 40.52% | inhibition at 20 µM: -11.9%

CC(C)c1cccc(C(C)C)c1N1C(=O)c2ccc(O)cc2C1=O [5HPP-33]
% conversion: 25.79%

O=C(Nc1cc(C(F)(F)F)cc(C(F)(F)F)c1)Nc1c(Br)cc(Br)cc1-c1nn[nH]n1 [NS5806]
Plate 2 (% conversion) [1]: 28.28% | Plate 2 (% inhibition) [3]: 22.93%

O=C(/C=C/c1ccc(O)cc1)CC(=O)/C=C/c1ccc(O)cc1 [Bisdemethoxycurcumin, reference compound]
inhibition at 20 µM [4]: 99.7%

Nc1nc2c(c(=O)[nH]1)C[C@@H](CCc1ccc(C(=O)N[C@@H](CCC(=O)O)C(=O)O)cc1)CN2.O [Lometrexol hydrate]
Plate 3 (% conversion): 27.08%

NC(Cc1ccc(Cl)cc1)C(=O)O (racemic) [(±)-p-Chlorophenylalanine]
Plate 1 (% inhibition) [5]: -1.40% | Plate 1 (% conversion) [6]: 36.34%

O=C1N(c2ccccc2)c2ccccc2C1(Cc1ccncc1)Cc1ccncc1 [Linopirdine]
Plate 3 (% conversion) [7]: 41.24%

O=P(O)(O)C(Cl)(Cl)P(=O)(O)O [Clodronic acid, reference compound]
inhibition at 20 µM [4]: 100% | Plate 2 (% conversion) [1]: 2.30% | inhibition at 20 µM [2]: 101%

Cc1nc(N=Nc2ccc(S(=O)(=O)O)cc2S(=O)(=O)O)c(COP(=O)(O)O)c(C=O)c1O [PPADS]
% inhibition [8]: 84.93% | % conversion [9]: 7.48%

COc1ccccc1CN[C@@H]1CCCN[C@@H]1c1ccccc1.Cl.Cl.O [CP-100263 dihydrochloride hydrate]
% inhibition [8]: -15.48% | % conversion [9]: 41.75%

CC(CN1c2ccccc2Sc2ccccc21)N(C)C (stereo not drawn) [Promethazine hydrochloride]
Plate 3 (% conversion) [7]: 42.09%

Nc1nc2c(ncn2COCCO)c(=O)[nH]1 [Acyclovir]
Plate 1 (% inhibition) [5]: -3.39% | Plate 1 (% conversion) [6]: 37.01%

Cl.Cl.Fc1ccc(C(OCCN2CCN(CCCc3ccccc3)CC2)c2ccc(F)cc2)cc1 [GBR-12909 dihydrochloride]
Plate 2 (% conversion) [1]: 51.05% | Plate 2 (% inhibition) [3]: -45.09%

CN(CCCOc1ccc(Cc2ccccc2)cc1)CCC(=O)O.Cl [SC-57461A]
% conversion: 41.07% | Plate 5 (% conversion): 38.96% | Plate 5 (% inhibition): -7.77% | % inhibition (20 µM): -13.47%

CCOC(=O)Nc1ccc(NCc2ccc(F)cc2)nc1N [Flupirtine maleate]
Plate 2 (% conversion) [1]: 33.85% | inhibition at 20 µM [2]: 6.29%

CC(=O)[C@H]1CC[C@H]2[C@@H]3CCC4=CC(=O)CC[C@]4(C)[C@H]3CC[C@]12C [Progesterone]
Plate 3 (% conversion) [7]: 43.81%

CCCc1nn(C)c2c(=O)[nH]c(-c3cc(S(=O)(=O)N4CCN(C)CC4)ccc3OCC)nc12 [sildenafil, reference compound]
Plate 5 (% conversion): 6.67% | IC50: 2.45 ± 0.36 µM | inhibition at 20 µM [4]: 97.8% | Plate 5 (% inhibition) [10]: 87.11%

O=C(CCSCc1ccco1)NNC(=O)N1Cc2ccccc2Oc2ccc(Cl)cc21 [SC-51322]
% conversion [9]: 23.51% | Plate 5 (% inhibition) [10]: 13.59% | Plate 5 (% conversion) [11]: 31.69%

COc1cc2nc(N3CCN(C(=O)c4ccco4)CC3)nc(N)c2cc1OC [Prazosin hydrochloride]
% conversion [9]: 34.08%

NC(N)=NCc1cccc(I)c1.NC(N)=NCc1cccc(I)c1.O=S(=O)(O)O [m-Iodobenzylguanidine hemisulfate]
Plate 3 (% conversion) [7]: 36.94%

Cc1[nH]c2ccc(O)cc2c1CCN.O=C(O)/C=C\C(=O)O [2-Methyl-5-hydroxytryptamine maleate]
Plate 3 (% conversion): 35.71%

CCT007093
% inhibition [8]: 2.20% | % conversion [9]: 35.72%

Oc1ccc2ccccc2c1SSc1c(O)ccc2ccccc12 [IPA-3, reference compound]
Inhibition at 20 µM [%] (AspH activity, fixed compound concentration 20 μM, initial LOPAC screen, 0.5%v/v DMSO): 100.0% | % conversion [9]: 2.34%

CCC(NC(C)C)C(O)c1ccc(O)c(O)c1.CS(=O)(=O)O (stereo not drawn) [Isotharine mesylate]
Plate 3 (% conversion) [7]: 6.91%

CCc1cncnc1N1CCN(Cc2nc3ccc(C(F)(F)F)cc3[nH]2)CC1 [PF-4708671]
% conversion [9]: 41.30% | Plate 5 (% inhibition) [10]: 2.08% | Plate 5 (% conversion) [11]: 35.61%

CC1CCN(CC[C@H]2CCCN2S(=O)(=O)c2cccc(O)c2)CC1.Cl [SB 269970 hydrochloride]
% inhibition [8]: -11.63% | % conversion [9]: 40.44%

Cl.NCCc1ccc(S(=O)(=O)F)cc1
Plate 1 (% conversion): 34.69% | Plate 1 (% inhibition): 3.52%

O=C(O)CCN(O)C(=O)CCCCCCCCC1CC1 [TC-E 5002, reference compound]
IC50: 6.66 ± 0.69 µM

COc1cc(N)c(Cl)cc1C(=O)NC[C@@H]1CCN2CCC[C@@H]12 [SC-53116]
Plate 5 (% inhibition) [10]: 9.86% | Plate 5 (% conversion) [11]: 32.96%

CC1=C(CC(=O)O)c2cc(F)ccc2/C1=C\c1ccc([S+](C)[O-])cc1 (stereo not drawn) [Sulindac]
% conversion [9]: 35.56% | inhibition at 20 µM (LOPAC Plate 4, compound at 20 uM, read-out: % inhibition): 2.67%

CC(=O)c1ccc(S(=O)(=O)NC(=O)NC2CCCCC2)cc1 [Acetohexamide]
Plate 1 (% inhibition) [5]: -6.36% | Plate 1 (% conversion) [6]: 38.01%

[Ca+2].[Cl-].[Cl-] [Ca(II), CaCl2, reference compound]
IC50 metal ion, AspH [μM] (50 nM AspH, 2.0 μM Fe(II), Zn(OAc)2, NiSO4, CoCl2, MnCl2, CaCl2 as metal sources, n = 2, mean ± SD): do not show any effect; also recorded: does not perturb AspH activity; also recorded: inactive

COc1cc(/C=C(\C#N)C(=O)Nc2nnc(C(F)(F)F)s2)ccc1OCc1ccc(C(F)(F)F)cc1C(F)(F)F [XCT790]
% conversion [9]: 22.43%

N[C@H]1CON=C1O [L-Cycloserine]
Plate 1 (% inhibition) [5]: -2.43% | Plate 1 (% conversion) [6]: 36.69%

O=C(O)/C=C1\CCCc2ccccc2C1O (stereo not drawn) [NCS-382]
Plate 3 (% conversion) [7]: 38.57%

CCCCCCCC/C=C\CCCCCCCC(=O)O [Oleic Acid]
Plate 3 (% conversion): 10.92%

O=C(O)CCNc1cc(N2CCc3ccccc3CC2)nc(-c2ccccn2)n1 [GSK-J1, reference compound]
IC50: 12.9 ± 1.05 µM

CO[C@H]1C[C@@H]2CC[C@@H](C)[C@@](O)(O2)C(=O)C(=O)N2CCCC[C@H]2C(=O)O[C@H]([C@H](C)C[C@@H]2CC[C@@H](OC(=O)C(C)(CO)CO)[C@H](OC)C2)CC(=O)[C@H](C)/C=C(\C)[C@@H](O)[C@@H](OC)C(=O)[C@H](C)C[C@H](C)/C=C/C=C/C=C/1C [Temsirolimus]
Plate 5 (% inhibition) [10]: 52.39% | Plate 5 (% conversion) [11]: 18.48%

Cl.O=C(CCCCCN1CCN(c2ccccc2-c2ccccc2)CC1)NC1CCCc2ccccc21 (stereo not drawn) [LP 12 hydrochloride hydrate]
% inhibition [8]: -43.43% | % conversion [9]: 51.29%

CN1CCc2cc(Cl)c(O)cc2[C@@H](c2ccccc2)C1.Cl [R(+)-SCH-23390 hydrochloride]
Plate 2 (% inhibition) [3]: -3.60%

Cc1c(-c2ccc(-c3ccccc3F)cc2)nc2ccc(F)cc2c1C(=O)[O-].[Na+] [Brequinar sodium salt hydrate]
Plate 1 (% inhibition) [5]: 11.82% | Plate 1 (% conversion) [6]: 31.90%

Cl.NNC(N)=O [Semicarbazide hydrochloride]
% conversion: 22.57%

COc1cc(/C=C/C(=O)N2CCC=CC2=O)cc(OC)c1OC [Piperlongumine]
Plate 3 (% conversion): 35.88%

O=[N+]([O-])c1ccc(CSc2ncnc3c2ncn3[C@@H]2O[C@H](CO)[C@@H](O)[C@H]2O)cc1 [S-(4-Nitrobenzyl)-6-thioinosine]
Plate 3 (% conversion) [7]: 36.51%

CO/N=C(\C(=O)N[C@@H]1C(=O)N2C(C(=O)O)=C(CSc3nc(=O)c(=O)[nH]n3C)CS[C@H]12)c1csc(N)n1 [Ceftriaxone sodium]
Plate 1 (% inhibition) [5]: -8.63% | Plate 1 (% conversion) [6]: 38.77%

CC(C)(Oc1ccc(C2CC2(Cl)Cl)cc1)C(=O)O (stereo not drawn) [Ciprofibrate]
Plate 1 (% inhibition) [5]: -0.63% | Plate 1 (% conversion) [6]: 36.08%

COCCOc1cc2nc[nH]c(=O)c2cc1OCCOC [CP-380736]
Plate 1 (% conversion): 40.54% | Plate 1 (% inhibition): -13.90% | Plate 5 (% conversion): 31.91% | Plate 5 (% inhibition): 12.94%
